Data taken from US20070111889A1, “6-(Aminocarbonyl-phenyl)triazolopyrimidines, methods for the production thereof, use thereof for controlling harmful fungi, and substances containing the same” (BASF Aktiengesellschaft, priority 2003, published 2007).

Tests used:
Pyrenophora teres = test: Activity against net blotch of barley caused by Pyrenophora teres (protective spray, barley seedlings); type: in vivo, Pyrenophora [syn. Drechslera] teres; details: 63 ppm; barley cultivar Hanna; inoculated 24 h after spraying; assessed visually after 6 days; untreated plants 90% infected
Description: The active compounds were prepared as a stock solution with 0.25% by weight of active compound in acetone or DMSO. 1% by weight of the emulsifier Uniperol® EL (wetting agent having emulsifying and dispersing action based on ethoxylated alkylphenols) was added to this solution, and the mixture was diluted with water to the desired concentration. Leaves of pot-grown barley seedlings of the cultivar “Hanna” were sprayed to runoff point with an aqueous suspensiori having the concentration of active compound stated below. 24 hours after the spray coating had dried on, the test plants were inoculated with an aqueous spore suspension of Pyrenophora [syn. Drechslera] teres, the causative agent of net blotch. The test plants were subsequently placed in a greenhouse at temperatures of between 20 and 24° C. and at a relative atmospheric humidity of 95 to 100%. After 6 days, the extent of the development of the disease was determined visually in % of infection of the total leaf area.

Plasmopara viticola = test: Activity against Peronospora of vines caused by Plasmopara viticola (protective spray, potted vines); type: in vivo; details: 250 ppm; vines cultivar Riesling; inoculated the day after spraying; assessed visually; untreated plants 90% infected
Description: The active compounds were prepared as a stock solution with 0.25% by weight of active compound in acetone or DMSO. 1% by weight of the emulsifier Uniperol® EL (wetting agent having emulsifying and dispersing action based on ethoxylated alkylphenols) was added to this solution, and the mixture was diluted with water to the desired concentration.
Leaves of potted vines of the cultivar “Riesling” were sprayed to runoff point with an aqueous suspension having the concentration of active compounds stated below. The next day, the undersides of the leaves were inoculated with an aqueous zoospore suspension of Plasmopara viticola. The vines were then initially placed in a water-vapor-saturated chamber at 24° C. for 48 hours and then in a greenhouse at temperatures of between 20 and 30° C. for 5 days. After this time, the plants were again placed in a moist chamber for 16 hours to promote sporangiophore eruption. The extent of the development of the infection on the undersides of the leaves was then determined visually.

CC1CCN(c2c(-c3c(F)cc(C(N)=O)cc3F)c(Cl)nc3ncnn23)CC1 [I-1, 5-chloro-6-(2,6-difluoro-4-aminocarbonylphenyl)-7-(4-methylpiperidin-1-yl)-[1,2,4]-triazolo[1,5-a]pyrimidine]
infection (% of infection of the total leaf area) (Pyrenophora teres): about 3%
infection on the undersides of the leaves (Plasmopara viticola): no infection
